Source: patent publication US20090215884A1, “METHOD FOR WOUND HEALING” (priority 2005, published 2009)

Test system: rat full-thickness incisional wounds
Assay: Rat incisional wound healing model: tensiometric assessment of wound strength
Assay type: in vivo
Settings: single topical treatment
Excerpt: In order to examine the effects of PEP005 on the repair of acute (surgical) incisional wounds, involving minimal new tissue generation, the rat, full-thickness incisional wound healing model, was employed.
Adult male Sprague Dawley rats (Harlan U.K. Ltd., Oxfordshire, U.K.), approximately 8-10 weeks old and weighing between 250-300 g, were used in this study. The animals were initially housed in groups of up to four per cage (cage dimensions 40×25×20 cm, with sawdust bedding, changed twice weekly), according to Home Office regulations, in an environment maintained at an ambient temperature of 23° C. with 12-hour light/dark cycles. The animals were provided food (Standard Rodent Diet) and water ad libitum. In order to acclimatize the animals to their surroundings, prior to experimentation, the animals were housed for a minimum of one week without disturbance, other than to refresh their bedding and to replenish their food and water provisions. Following wounding, animals were monitored under individual housed conditions until fully recovered from the procedure. Animals were then maintained individually for a period of 2 weeks (i.e. until their wounds have fully re-epithelialized). After this initial 2-week period, animals were maintained in groups of up to four for the remainder of the study. All animal procedures were performed in a Home Office licensed establishment, under U.K. Home Office Licences (PPL: 40/2650; PIL: 70/4934 and PIL: 60/7661).
Animals were anaesthetized using inhalation of Halothane and air, and the dorsum of each rat shaved and washed with the bactericide, chlorhexidine gluconate (0.05% aqueous). Four full-thickness incisional wounds (1 cm in length, include the panniculus carnosus and hypodermis) were created on the backs of each animal. Wounds remained unsutured (allowed to gape), in order to allow granulation tissue to form within the wounds. Following wounding (day 0), one of the four PEP005 concentrations (PEP005-free, DMSO/isopropanol gel vehicle, 0.01%, 0.028% or 0.05% PEP005) were applied to each wound, whilst non-treated wound controls remained untreated. […]
Immediately after injury, single treatments of the 0.01%, 0.028% PEP005, or DMSO/isopropanol vehicle gels, were applied at volumes of 10 μl per 100 mm^2 (1 μg/10 μl, 2.8 μg/10 μl and 5 μg/10 μl PEP005, respectively), to the marginal skin surrounding each wound, with a total area of 600 mm^2 of marginal skin receiving treatment. […] Rats were maintained in their respective experimental groups for 1, 4 and 12 weeks, when the animals in each group were euthanized and the condition of wound and peri-wound tissues (in terms of viability, erythema, oedema, etc.), monitored at all assessment points, according to Table 2.1. […]

C/C=C(/C)C(=O)O[C@H]1C(C)=C[C@]23C(=O)[C@@H](C=C(CO)[C@@H](O)[C@]12O)[C@H]1[C@@H](C[C@H]3C)C1(C)C [PEP005, ingenol-3-angelate]
mean tensile strength of wound (week 4, 0.01%, 0.028%, 0.05% PEP005 gel): dose dependent trend, with increasing tensile strength
mean tensile strength of wound (week 12, 0.01% PEP005 gel): increasing
mean tensile strength of wound (week 12, 0.028% PEP005 gel): declining at 0.028% to control levels
mean tensile strength of wound (week 12, 0.05% PEP005 gel): another increase
